Data taken from PMC10787358 (Science translational medicine, 2023).

What was measured:
SARS-CoV-2 = test system: SARS-CoV-2; set-up: species or system hACE2 transgenic mice; conditions: mouse, in vivo
[1] = test system: SARS-CoV-2 Beta and Delta variants; assay type: cell-based
[2] = test system: SARS-CoV-2 WT, Beta, Delta, Omicron BA.2; assay type: cell-based; conditions: UDCA 10 μM, ML364 4 μM, MS102 4 μM, 48 h

For Cc1ccc(S(=O)(=O)Nc2cc(C(F)(F)F)ccc2C(=O)Nc2nc(-c3ccccc3)cs2)cc1 [ML364], the “therapeutic effectiveness against SARS-CoV-2 infection” value (SARS-CoV-2) was “substantial therapeutic potential” and the “inhibition of authentic SARS-CoV-2 variants” value [1] was “broad inhibition”.

For Cc1ccc(S(=O)(=O)Nc2ccc(C(F)(F)F)cc2C(=O)Nc2nc(-c3ccc(Br)cc3)cs2)cc1 [MS102], the “inhibition of infection of Calu-3 cells by authentic SARS-CoV-2 (TCID50)” value [2] was “superior activity”.

For C[C@H](CCC(=O)O)[C@H]1CC[C@H]2[C@@H]3[C@@H](O)C[C@@H]4C[C@H](O)CC[C@]4(C)[C@H]3CC[C@]12C [UDCA, ursodeoxycholic acid], the “inhibition of infection of Calu-3 cells by authentic SARS-CoV-2 (TCID50)” value [2] was “exhibited efficacy”.
